One assay concerns the target T1, human c-kit (Homo sapiens, UniProt P10721).
T1 construct: GST-tagged recombinant kinase domain of the human c-kit; GST; host or cells: SF-9 insect cells
Nature of the assay: cKIT-Kinase HTRF-Assay (assay 4). Format: biochemical. The conditions noted are these: for IC50: GST-tagged kinase domain of human c-kit, 10 μM ATP; for Selectivity vs. cKit: IC50 assay 4/IC50 assay 2. Here is the method:
Assay 4: cKIT-Kinase HTRF-Assay
c-Kit-inhibitory activity of compounds of the present invention was quantified employing the c-kit HTRF assay as described in the following paragraphs. GST-tagged recombinant kinase domain of the human c-kit expressed in SF-9 cells was used as kinase. As substrate for the kinase reaction biotinylated poly-(Glu,Tyr) (Cis biointernational, France) was used.
c-Kit was incubated for 30 min at 22° C. in the presence of different concentrations of test compounds in 5 μl assay buffer [50 mM Hepes/NaOH pH 7.0, 1 mM MgCl2, 5 mM MnCl2, 1.0 mM dithiothreitol, 0.1 mM sodium ortho-vanadate, 10 μM adenosine-tri-phosphate (ATP), 1.3 μg/ml substrate, 0.001% (v/v) Nonidet-P40 (Sigma), 1% (v/v) dimethylsulfoxide]. The concentration of c-kit was adjusted depending of the activity of the enzyme lot and was chosen appropriate to have the assay in the linear range. The reaction was stopped by the addition of 5 μl of a solution of HTRF detection reagents (0.1 μM streptavidine-XLent and 1 nM PT66-Eu-Chelate, an europium-chelate labelled anti-phospho-tyrosine antibody from Perkin Elmer) in an aqueous EDTA-solution (80 mM EDTA, 0.2% (w/v) bovine serum albumin in 50 mM HEPES/NaOH pH 7.0).
(§1) The resulting mixture was incubated 1 h at 22° C. to allow the binding of the biotinylated phosphorylated peptide to the streptavidine-XLent and the PT66-Eu-Chelate. Subsequently the amount of phosphorylated substrate was evaluated by measurement of the resonance energy transfer from the PT66-Eu-Chelate to the streptavidine-XLent. Therefore, the fluorescence emissions at 620 nm and 665 nm after excitation at 350 nm was measured in a HTRF reader, e.g. a Rubystar (BMG Labtechnologies, Offenburg, Germany) or a Viewlux (Perkin-Elmer). The ratio of the emissions at 665 nm and at 622 nm was taken as the measure for the amount of phosphorylated substrate.
A general note: TR-FRET usually uses a lanthanide donor and a delayed reading to cut background.

The target in assay [1] is T2, Tie2 (Homo sapiens, UniProt Q02763). Nature of the assay: Tie2 ELISA assay (assay 1): cellular Tie2 autophosphorylation. Format: cell-based. More on the design: expressed in transfected cells; host or cells: CHO (DHFR-deficient), stably transfected. The conditions noted are these: CHO cells stably transfected with Tie2, stimulated by angiopoietin-2; Tie2 autophosphorylation by sandwich-ELISA; read-out: Tie 2 activity (assay 1). As for the experimental part:
Assay 1: Tie2 ELISA Assay
Cellular activity of compounds of the present invention as inhibitors of Tie2 kinase activity was measured employing a Tie2 ELISA assay as described in the following paragraphs. Herein CHO cell-cultures, which are stably transfected by known techniques with Tie2 using DHFR deficiency as selection marker, are stimulated by angiopoietin-2. The specific autophosphorylation of Tie2 receptors is quantified with a sandwich-ELISA using anti-Tie2 antibodies for catch and anti-phosphotyrosine antibodies coupled to HRP for detection. […]
Target sequence in this assay (Q02763 23-1124): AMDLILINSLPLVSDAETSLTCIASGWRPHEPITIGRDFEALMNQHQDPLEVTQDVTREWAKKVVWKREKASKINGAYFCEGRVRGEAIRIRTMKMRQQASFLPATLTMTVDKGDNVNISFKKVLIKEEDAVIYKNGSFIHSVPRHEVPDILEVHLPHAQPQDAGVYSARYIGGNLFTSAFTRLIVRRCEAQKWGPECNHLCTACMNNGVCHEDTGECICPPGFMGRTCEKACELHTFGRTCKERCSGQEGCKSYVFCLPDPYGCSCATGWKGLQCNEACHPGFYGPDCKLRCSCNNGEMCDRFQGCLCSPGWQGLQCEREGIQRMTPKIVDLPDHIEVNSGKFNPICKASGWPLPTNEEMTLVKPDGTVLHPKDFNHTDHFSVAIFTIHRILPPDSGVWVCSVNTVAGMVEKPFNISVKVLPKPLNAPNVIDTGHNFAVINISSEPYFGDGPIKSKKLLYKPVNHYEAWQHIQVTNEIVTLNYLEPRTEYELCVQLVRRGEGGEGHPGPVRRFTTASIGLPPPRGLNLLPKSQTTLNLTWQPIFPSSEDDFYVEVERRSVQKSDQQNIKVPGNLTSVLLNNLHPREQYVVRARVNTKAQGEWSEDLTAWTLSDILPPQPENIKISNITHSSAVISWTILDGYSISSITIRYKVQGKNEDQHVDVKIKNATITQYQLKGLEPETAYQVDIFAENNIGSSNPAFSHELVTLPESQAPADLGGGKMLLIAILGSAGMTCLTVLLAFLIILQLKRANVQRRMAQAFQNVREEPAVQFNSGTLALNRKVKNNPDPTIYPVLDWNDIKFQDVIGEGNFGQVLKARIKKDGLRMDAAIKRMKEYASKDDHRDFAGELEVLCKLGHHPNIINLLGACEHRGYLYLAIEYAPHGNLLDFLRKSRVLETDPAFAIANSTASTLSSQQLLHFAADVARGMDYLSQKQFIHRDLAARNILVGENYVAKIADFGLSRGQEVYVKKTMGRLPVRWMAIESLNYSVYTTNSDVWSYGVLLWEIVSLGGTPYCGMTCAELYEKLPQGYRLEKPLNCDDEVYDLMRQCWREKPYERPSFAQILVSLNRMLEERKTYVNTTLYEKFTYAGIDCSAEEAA
(In general: In an ELISA, binding on a coated surface is turned into a signal by an enzyme label.)

Assay [2] addresses T2, Tie2. Nature of the assay: Tie-2-Kinase HTRF-Assay without kinase preactivation (assay 2). More on the design: A recombinant fusion protein of GST and the intracellular domains of Tie-2; GST; made in house; host or cells: insect cells (Hi-5). Type of assay: biochemical. The conditions noted are these: GST-Tie-2 intracellular domains, no preactivation, 10 μM ATP.
Text: Assay 2: Tie-2-Kinase HTRF-Assay without Kinase Preactivation
Tie2-inhibitory activity of compounds of the present invention was quantified employing two Tie2 HTRF assay as described in the following paragraphs.
A recombinant fusion protein of GST and the intracellular domains of Tie-2, expressed in insect cells (Hi-5) and purified by Glutathion-Sepharose affinity chromatography was used as kinase. Alternatively, commercially available GST-Tie2-fusion protein (Upstate Biotechnology, Dundee, Scotland) can be used As substrate for the kinase reaction the biotinylated peptide biotin-Ahx-[…] (C-terminus in amid form) was used which can be purchased e.g. from the company Biosynthan GmbH (Berlin-Buch, Germany). Detection of phosphorylated product is achieved specifically by a trimeric detection complex consisting of the phosphorylated substrate, streptavidin-XLent (SA-XLent) which binds to biotin, and Europium Cryptate-labeled anti-phosphotyrosine antibody PT66 which binds to phosphorylated tyrosine.
The reaction was stopped by the addition of 5 μl of an aqueous buffer (25 mM Hepes/NaOH pH 7.5, 0.28% (w/v) bovine serum albumin) containing EDTA (90 mM) and the HTRF (Homogeneous Time Resolved Fluorescence) detection reagents streptavidine-XLent (0.2 μM, from Cis Biointernational, Marcoule, France) and PT66-Eu-Chelate (0.3 ng/μl; a europium-chelate labelled anti-phospho-tyrosine antibody from Perkin Elmer).
as §1, with “substrate peptide” for “substrate”, “substrate peptide.” for “substrate.”
Target sequence in this assay (Q02763 770-1124 limits assumed): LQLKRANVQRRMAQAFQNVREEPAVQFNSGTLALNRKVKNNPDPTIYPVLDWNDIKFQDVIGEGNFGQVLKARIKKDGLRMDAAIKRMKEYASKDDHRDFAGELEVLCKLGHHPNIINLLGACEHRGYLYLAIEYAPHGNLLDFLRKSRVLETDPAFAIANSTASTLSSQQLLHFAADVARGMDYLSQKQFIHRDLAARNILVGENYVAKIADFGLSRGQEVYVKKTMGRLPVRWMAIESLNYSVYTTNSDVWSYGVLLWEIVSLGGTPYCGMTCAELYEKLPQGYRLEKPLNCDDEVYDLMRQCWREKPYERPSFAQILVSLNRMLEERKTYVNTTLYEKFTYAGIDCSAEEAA

Assay [3] deals with Tie2 vs. KDR. The conditions noted are these: Albert et al. Mol. Cancer. Ther. 2006, 5, 995; cited from earlier work.
Assay [4] deals with Tie2 vs. KDR. The conditions noted are these: Albert et al. Mol. Cancer. Ther. 2006, 5, 995; cited from earlier work. This is another data set of the same source.

Bounds are passed on as bounds.

T1 sequence (P10721 589-937 limits assumed): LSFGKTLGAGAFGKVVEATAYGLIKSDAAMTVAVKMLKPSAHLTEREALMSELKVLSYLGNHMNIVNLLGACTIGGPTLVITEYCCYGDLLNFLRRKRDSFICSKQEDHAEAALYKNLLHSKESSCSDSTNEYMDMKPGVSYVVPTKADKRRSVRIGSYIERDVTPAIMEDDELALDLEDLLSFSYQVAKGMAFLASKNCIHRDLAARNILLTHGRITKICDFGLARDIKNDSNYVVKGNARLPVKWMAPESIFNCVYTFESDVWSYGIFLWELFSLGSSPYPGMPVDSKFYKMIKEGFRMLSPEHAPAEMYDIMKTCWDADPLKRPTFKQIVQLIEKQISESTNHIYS

Consider `Cn1nc(N)c2c(-c3ccc(NC(=O)Nc4cccc(C(F)(F)F)c4)cc3)cc(C3(C(=O)N4CCCC4)CC3)nc21` [Example 1.13, 1-(4-{3-Amino-1-methyl-6-[1-(pyrrolidine-1-carbonyl)-cyclopropyl]-1H-pyrazolo[3,4-b]pyridin-4-yl}-phenyl)-3-(3-trifluoromethyl-phenyl)-urea], for which the values for the IC50 on human c-kit, at Tie2 [1] and at Tie2 [2] were 1000 to 10000 nM, at most 100 nM and at most 100 nM, respectively. Moreover, the “Selectivity vs. cKit” value on human c-kit was over 100.
Take `Nc1n[nH]c2nccc(-c3ccc(NC(=O)Nc4cccc(C(F)(F)F)c4)cc3)c12` [PA2, 1-[4-(3-Amino-1H-pyrazolo[3,4-b]pyridin-4-yl)-phenyl]-3-(3-trifluoromethyl-phenyl)-urea, reference compound]: the IC50 against human c-kit, on Tie2 [1] and at Tie2 [2] was at most 100 nM each time. Besides, the “Selectivity vs. cKit” value at human c-kit amounted to 0.67.
With `Cn1nc(N)c2c(-c3ccc(NC(=O)Nc4cccc(C(F)(F)F)c4)cc3)cc(C3CCCCC3)nc21` [Example 7.1, 1-[4-(3-Amino-6-cyclohexyl-1-methyl-1H-pyrazolo[3,4-b]pyridin-4-yl)-phenyl]-3-(3-trifluoromethyl-phenyl)-urea], the IC50 is 100 to 1000 nM on human c-kit, at most 100 nM at Tie2 [1] and at most 100 nM at Tie2 [2]. Also, the “Selectivity vs. cKit” value on human c-kit came to 9.
Take `CN(C)C(=O)C1(c2cc(-c3ccc(NC(=O)Nc4cccc(C(F)(F)F)c4)cc3)c3c(N)nn(C)c3n2)CC1` [Example 1.10, 1-(3-Amino-1-methyl-4-{4-[3-(3-trifluoromethyl-phenyl)-ureido]-phenyl}-1H-pyrazolo[3,4-b]pyridin-6-yl)-cyclopropanecarboxylic acid dimethylamide]: the results for the IC50 against human c-kit, at Tie2 [1] and on Tie2 [2] were 1000 to 10000 nM, at most 100 nM and at most 100 nM, respectively. Moreover, the “Selectivity vs. cKit” value on human c-kit came to 12.
With `Cc1ccc(F)c(NC(=O)Nc2ccc(-c3cc(C4(C(=O)N5CCCC5)CC4)nc4c3c(N)nn4C)cc2)c1` [Example 4.3], the IC50 was 1000 to 10000 nM at human c-kit, at most 100 nM at Tie2 [1] and at most 100 nM on Tie2 [2]. Also, the “Selectivity vs. cKit” value on human c-kit is over 100.
As for `CCN(CC)C(=O)C1(c2cc(-c3ccc(NC(=O)Nc4cccc(C(F)(F)F)c4)cc3)c3c(N)nn(C)c3n2)CC1` [Example 1.11, 1-(3-Amino-1-methyl-4-{4-[3-(3-trifluoromethyl-phenyl)-ureido]-phenyl}-1H-pyrazolo[3,4-b]pyridin-6-yl)-cyclopropanecarboxylic acid diethylamide], the IC50 against human c-kit was 1000 to 10000 nM; at Tie2 [1], at most 100 nM; at Tie2 [2] it was at most 100 nM. For the same compound, the “Selectivity vs. cKit” value at human c-kit came out at 24.
As for `Cc1ccc(F)c(NC(=O)Nc2ccc(-c3ccnc4[nH]nc(N)c34)cc2)c1` [PA3, 1-[4-(3-Amino-1H-pyrazolo[3,4-b]pyridin-4-yl)-phenyl]-3-(2-fluoro-5-methyl-phenyl)-urea, reference compound], the IC50 against human c-kit is at most 100 nM; on Tie2 [1], 100 to 1000 nM; on Tie2 [2], at most 100 nM. Moreover, the “Selectivity vs. cKit” value at human c-kit turned out to be 0.26.
For `Cc1ccc(F)c(NC(=O)Nc2ccc(-c3cccc4[nH]nc(N)c34)cc2)c1` [PA1, 1-[4-(3-Amino-1H-indazol-4-yl)-phenyl]-3-(2-fluoro-5-methyl-phenyl)-urea], in the assay on Tie2 vs. KDR [3], the “times less active against Tie2 than KDR in cellular assays” value is recorded as about 1000 times. In the assay on Tie2 vs. KDR [4], the “times less active against Tie2 vs. KDR in enzymatic assays” value is about 40 times.
`Cc1ccc(F)c(NC(=O)Nc2ccc(-c3cc(C4(C(=O)N(C)C)CC4)nc4c3c(N)nn4C)cc2)c1` [Example 4.4, 1-(3-Amino-4-{4-[3-(2-fluoro-5-methyl-phenyl)-ureido]-phenyl}-1-methyl-1H-pyrazolo[3,4-b]pyridin-6-yl)-cyclopropanecarboxylic acid dimethylamide]: the IC50 against human c-kit is 1000 to 10000 nM; at Tie2 [1] it was at most 100 nM; at Tie2 [2], at most 100 nM. In addition, the “Selectivity vs. cKit” value on human c-kit is reported as 15.
On to `CN(C)CCNC(=O)C1(c2cc(-c3ccc(NC(=O)Nc4cccc(C(F)(F)F)c4)cc3)c3c(N)nn(C)c3n2)CC1` [Example 1.9, 1-(3-Amino-1-methyl-4-{4-[3-(3-trifluoromethyl-phenyl)-ureido]-phenyl}-1H-pyrazolo[3,4-b]pyridin-6-yl)-cyclopropanecarboxylic acid (2-dimethylamino-ethyl)-amide], for which the results for the IC50 against human c-kit, at Tie2 [1] and at Tie2 [2] were 100 to 1000 nM, 100 to 1000 nM and at most 100 nM, respectively. Also, the “Selectivity vs. cKit” value on human c-kit amounted to 10.
For `Cn1nc(N)c2c(-c3ccc(NC(=O)Nc4cccc(C(F)(F)F)c4)cc3)cc(C3CCC3)nc21` [Example 6.1, 1-[4-(3-Amino-6-cyclobutyl-1-methyl-1H-pyrazolo[3,4-b]pyridin-4-yl)-phenyl]-3-(3-trifluoromethyl-phenyl)-urea], the IC50 is 1000 to 10000 nM on human c-kit, at most 100 nM on Tie2 [1] and at most 100 nM on Tie2 [2]. Moreover, the “Selectivity vs. cKit” value on human c-kit turned out to be 20.
Regarding `Cn1nc(N)c2c(-c3ccc(NC(=O)Nc4cccc(C(F)(F)F)c4)cc3)ccnc21` [PA4, 1-[4-(3-Amino-1-methyl-1H-pyrazolo[3,4-b]pyridin-4-yl)-phenyl]-3-(3-trifluoromethyl-phenyl)-urea, reference compound], the IC50 was 100 to 1000 nM at human c-kit, at most 100 nM at Tie2 [1] and at most 100 nM at Tie2 [2]. Besides, at human c-kit, the “Selectivity vs. cKit” value was 1.6.
Take `Cn1nc(N)c2c(-c3ccc(NC(=O)Nc4cccc(C(F)(F)F)c4)cc3)cc(C3(C(=O)NCCN4CCOCC4)CC3)nc21` [Example 1.8, 1-(3-Amino-1-methyl-4-{4-[3-(3-trifluoromethyl-phenyl)-ureido]-phenyl}-1H-pyrazolo[3,4-b]pyridin-6-yl)-cyclopropanecarboxylic acid (2-morpholin-4-yl-ethyl)-amide]: the results for the IC50 at human c-kit, at Tie2 [1] and on Tie2 [2] were 1000 to 10000 nM, at most 100 nM and 100 to 1000 nM, respectively. Moreover, the “Selectivity vs. cKit” value on human c-kit was 15.
In the case of `Cn1nc(N)c2c(-c3ccc(NC(=O)Nc4ccccc4)cc3)ccnc21` [PA6, 1-[4-(3-Amino-1-methyl-1H-pyrazolo[3,4-b]pyridin-4-yl)-phenyl]-3-phenyl-urea, reference compound], the results for the IC50 on human c-kit, at Tie2 [1] and at Tie2 [2] were at most 100 nM, 1000 to 10000 nM and 1000 to 10000 nM, respectively. The “Selectivity vs. cKit” value at human c-kit amounted to 0.06.

The values are drawn from patent US7825114B2, “Substituted aminopyrazolopyridines and salts thereof, pharmaceutical compositions comprising same, methods of preparing same and uses of same” (Bayer Schering Pharma AG, priority 2006, dated 2010).
